Several values for one entry are separate records, joined by “and”; a condition that tells them apart may be missing. Equal values may be shown once. Results filed as inconclusive are left out.
Test system: SK-MEL-5 MITF mRNA qPCR, delta-delta-Ct, overnight
Experiment: MITF transcript level reduction in melanoma cells – cell-based, RT-qPCR, SK-MEL-5, dry powder, dose response (AID 651773)

SMILES	AC40
CC(C)N1CCN(C2=C(Nc3ccc(F)cc3F)C(=O)c3ccccc3C2=O)CC1	1590 nM
COC1=C(NS(=O)(=O)c2ccccc2)C(=O)c2ccccc2C1=O	1840 nM
O=C1C=C(NS(=O)(=O)c2ccc(Br)cc2)C(=O)c2ccccc21	631 nM
CN1CCN(C2=C(Nc3ccc(F)cc3F)C(=O)c3ccccc3C2=O)CC1	1820 nM
COC1=C(NS(=O)(=O)c2ccc(Br)cc2)C(=O)c2ccccc2C1=O	6510 nM
COC1=C(Nc2ccccc2)C(=O)c2ccccc2C1=O	386 nM
O=C1C(NS(=O)(=O)c2cccs2)=C(c2ccccc2)C(=O)c2ccccc21	4940 nM
NC1=CC(=O)c2ccccc2C1=O	372 nM
CN1CCN(C2=C(NS(=O)(=O)c3ccc(Br)s3)C(=O)c3ccccc3C2=O)CC1	1330 nM
O=C1C=C(Nc2ccc([N+](=O)[O-])c(C(F)(F)F)c2)C(=O)c2ccccc21	86.8 nM
O=C1C=C(Nc2ccccc2)C(=O)c2ccccc21	175 nM and 189 nM
O=C1C=C(NS(=O)(=O)c2cccs2)C(=O)c2ccccc21	542 nM
NC1=C(NS(=O)(=O)c2ccccc2)C(=O)c2ccccc2C1=O	2760 nM
CCN1CCN(C2=C(NS(=O)(=O)c3ccc(Br)cc3)C(=O)c3ccccc3C2=O)CC1	3650 nM
O=C1C(Nc2ccc(Br)cc2)=C(N2CCCCC2)C(=O)c2ccccc21	9490 nM
NC1=C(NS(=O)(=O)c2cccs2)C(=O)c2ccccc2C1=O	1550 nM

SMILES	AC40
O=C1C(Nc2ccc(F)cc2)=C(N2CCCCC2)C(=O)c2ccccc21	6700 nM
NS(=O)(=O)c1ccc(NC2=CC(=O)c3ccccc3C2=O)cc1	115 nM
C=CCNC1=C(Cl)C(=O)c2ccccc2C1=O	276 nM
NC1=C(NC(=O)c2ccccc2)C(=O)c2ccccc2C1=O	357 nM
CC(C)N1CCN(C2=C(Nc3ccc(F)cc3)C(=O)c3ccccc3C2=O)CC1	5510 nM
CCN1CCN(C2=C(Nc3ccc(F)cc3F)C(=O)c3ccccc3C2=O)CC1	2280 nM
CCN1CCN(C2=C(NC(=O)c3ccccc3)C(=O)c3ccccc3C2=O)CC1	1280 nM
Cc1ccc(NC2=CC(=O)c3ccccc3C2=O)cc1	1650 nM
O=C1C(Nc2ccc(Cl)cc2)=C(N2CCCC2)C(=O)c2ccccc21	9480 nM
O=C1C(Nc2ccccc2)=C(c2ccccc2)C(=O)c2ccccc21	5040 nM
NC1=C(NS(=O)(=O)c2ccc(Br)cc2)C(=O)c2ccccc2C1=O	4920 nM
O=C(NC1=C(Cl)C(=O)c2ccccc2C1=O)c1ccccc1	179 nM
O=C1C(Nc2cccc(Cl)c2)=C(N2CCCC2)C(=O)c2ccccc21	10200 nM
COC1=C(NS(=O)(=O)c2cccs2)C(=O)c2ccccc2C1=O	7800 nM
O=C1C=C(NS(=O)(=O)c2ccccc2)C(=O)c2ccccc21	196 nM

From PubChem BioAssay AID651773 (Broad Institute, 2012)
